Experimental findings from patent publication US11458149B1, “TEAD inhibitors and uses thereof” (Ikena Oncology, Inc., priority 2019, dated 2022) are described below.

Where two headings read alike, the source gives them in different places.

As usually defined, the EC50 is the midpoint of the concentration-response curve.

One test concerns TEAD. Briefly: TEAD reporter assay (Hippo Pathway TEAD Reporter - MCF7 cell line, luciferase). The class given is cell-based, human. An excerpt: TEAD inhibition can be assayed using Hippo Pathway TEAD Reporter—MCF7 Cell Line (BPS Bioscience, Catalog #: 60618).
The TEAD Reporter—MCF7 cell line contains the firefly luciferase gene under the control of TEAD responsive elements stably integrated into the human breast cancer cell line, MCF7. Inside the cells, basal unphosphorylated YAP/TAZ remains in the nucleus and induces the constitutive expression of luciferase reporter. The cell line is validated for the inhibition of the expression of luciferase reporter by the activators of the Hippo pathway.
• 1) Harvest TEAD Reporter—MCF7 cells from culture in growth medium and seed cells at a density of 35,000 cells per well into white clear-bottom 96-well microplate in 45 μl of assay medium. • 2) Incubate cells at 37° C. in a CO2 incubator for overnight. • 3) Dilute the activators (H2O2 or okadaic acid) stock in assay medium. Add 5 μl of diluted activators to the wells. The final concentration of DMSO in assay medium is 0.1%. • 4) Add 5 μl of assay medium with same concentration of DMSO without activator to control wells. • 5) Add 50 μl of assay medium with DMSO to cell-free control wells (for determining background luminescence). • 6) Set up each treatment in at least triplicate. • 7) Incubate cells at 37° C. in a CO2 incubator for 5-6 hours. • 8) Perform luciferase assay using the ONE-Step™ Luciferase Assay System following the protocol provided: Add 100 μl of ONE-Step™ Luciferase reagent per well and rock at room temperature for ˜15 minutes. Measure luminescence using a luminometer. • 9) Data Analysis: Obtain the background-subtracted luminescence by subtracting the average background luminescence (cell-free control wells) from the luminescence reading of all wells.
(§1) Certain compounds were tested in TEAD reporter assay, and in H226 and H28. A: EC50<0.1 uM; B: 0.1 uM≤EC50≤0.5 uM; C: EC50>0.5 uM.
On the technique in general: In a reporter assay the amount or activity of a reporter protein is the signal.

The subject of a further test is H226. The experiment in a line: Anti-proliferation assay in H226 cells. The format is cell-based, human. The procedure:
as §1
Individual cell lines were grown in medium according to supplier instructions and seeded into 96-well plates at a density that ensured logarithmic growth over 72 hours. TEAD inhibitor compounds were administered to cells at a top concentration of 10 μm and subsequently a 10 point 3-fold serial dilution was conducted. After 72 hours, proliferation was quantified using Cell TITERGLO™ (Promega, Inc.) and compared to vehicle control. IC50 and EC50 values were generated using XLFit curve fitting software.

Where [1] appears, read: Homo sapiens, MCF7, TEAD Reporter - MCF7 cells, read-out: TEAD Reporter Assay EC50.
Setting [2] is: Homo sapiens, NCI-H226, H226 cells, read-out: H226 EC50.
Setting [3] is: TEAD Reporter - MCF7 cells, read-out: TEAD Reporter Assay EC50.
The mark [4] stands for this setting: H226 cells, read-out: H226 EC50.

`C=CC(=O)Nc1ccc(C)c(Oc2cc(C(F)(F)F)ccc2OC)c1` [Compound I-32, N-[3-[2-Methoxy-5-(trifluoromethyl)phenoxy]-4-methyl-phenyl]prop-2-enamide]: the concentration for a half-maximal effect (EC50) in the test on TEAD (setting [1]) and in the test on H226 (setting [2]) was over 0.5 µM each time.
Consider `C=CC(=O)Nc1ccc2c(c1)N(c1ccc(C(F)(F)F)cc1)CCC2` [Compound I-34, N-[1-[4-(Trifluoromethyl)phenyl]-3,4-dihydro-2H-quinolin-7-yl]prop-2-enamide], for which, in the test with TEAD (setting [1]), the EC50 was over 0.5 µM.
On to `C=CC(=O)Nc1ccc2c(c1)N(c1cccc(C(F)(F)F)c1)CCC2` [Compound I-37, N-[1-[3-(trifluoromethyl)phenyl]-3,4-dihydro-2H-quinolin-7-yl]prop-2-enamide], for which the results for the EC50 with TEAD (setting [1]) and in the test with H226 (setting [2]) were over 0.5 µM and 0.1 to 0.5 µM, respectively.
Taken in the same sequence, the figures for `C=CC(=O)Nc1cccc(N2CCCc3ccc(C(F)(F)F)cc32)c1` [Compound I-38, N-[3-[7-(trifluoromethyl)-3,4-dihydro-2H-quinolin-1-yl]phenyl]prop-2-enamide] were over 0.5 µM and over 0.5 µM.
Taken in the same sequence, the figures for `NC(=O)/C=C/c1cc(Oc2cccc(C(F)(F)F)c2)cc2ncccc12` [Compound I-39, (E)-3-[7-[3-(trifluoromethyl)phenoxy]-5-quinolyl]prop-2-enamide] were over 0.5 µM and over 0.5 µM.
Take `C=CC(=O)Nc1ccc(C)c(Oc2cc(C(F)(F)F)ccc2Br)c1` [Compound I-41, N-[3-[2-bromo-5-(trifluoromethyl)phenoxy]-4-methyl-phenyl]prop-2-enamide]: the concentration for a half-maximal effect (EC50) in the test on TEAD (setting [1]) and in the test on H226 (setting [2]) was over 0.5 µM throughout.
With `C=CC(=O)Nc1cc(Oc2cccc(C(F)(F)F)c2)cc2ncccc12` [Compound I-42], the EC50 was under 0.1 µM in the test with TEAD (setting [1]) and 0.1 to 0.5 µM with H226 (setting [2]).
`C=CC(=O)Nc1cccc(N2CCCc3cc(C(F)(F)F)ccc32)c1` [Compound I-43]: the EC50 with TEAD (Homo sapiens, MCF7, read-out: TEAD Reporter Assay EC50 (uM)) is over 0.5 µM; with H226 (Homo sapiens, NCI-H226, read-out: H226 EC50 (uM)), over 0.5 µM.
As for `C=CC(=O)Nc1cc(Oc2cccc(C(F)(F)F)c2)c2cccnc2c1` [Compound I-44, N-[5-[3-(Trifluoromethyl)phenoxy]-7-quinolyl]prop-2-enamide], the EC50 in the test on TEAD (setting [1]) and in the test on H226 (setting [2]) was under 0.1 µM throughout.
Consider `C=CC(=O)Nc1cc(Oc2cccc(C(F)(F)F)c2)c(C)cn1` [Compound I-45], for which the EC50 with TEAD (setting [1]) and in the test on H226 (setting [2]) was under 0.1 µM each time.
With `C=CC(=O)N[C@@H]1CCCN(Cc2cccc(C(F)(F)F)c2)C1` [Compound I-47, N-[(3R)-1-[[3-(trifluoromethyl)phenyl]methyl]-3-piperidyl]prop-2-enamide], the EC50 with TEAD (setting [1]) and in the test on H226 (setting [2]) was over 0.5 µM in each case.
As to `C=CC(=O)N[C@H]1CCCN(Cc2cccc(C(F)(F)F)c2)C1` [Compound I-48, N-[(3S)-1-[[3-(trifluoromethyl)phenyl]methyl]-3-piperidyl]prop-2-enamide], in the test with TEAD (setting [1]), the EC50 was over 0.5 µM.
For `C=CC(=O)NC1CCN(Cc2cccc(C(F)(F)F)c2)CC1` [Compound I-51, N-[1-[[3-(trifluoromethyl)phenyl]methyl]-4-piperidyl]prop-2-enamide], the EC50 with TEAD (setting [1]) and in the test with H226 (setting [2]) was over 0.5 µM each time.
In the case of `C=CC(=O)NC1CCN(C(=O)c2ccc(C(F)(F)F)cc2)CC1` [Compound I-52, N-[1-[4-(trifluoromethyl)benzoyl]-4-piperidyl]prop-2-enamide], the EC50 in the test on TEAD (setting [1]) and with H226 (setting [2]) was 0.1 to 0.5 µM in each case.
With `C=CC(=O)N1CCC(NCc2ccc(C(F)(F)F)cc2)CC1` [Compound I-53, 1-[4-[[4-(trifluoromethyl)phenyl]methylamino]-1-piperidyl]prop-2-en-1-one], the EC50 in the test with TEAD (setting [1]) and in the test with H226 (setting [2]) was 0.1 to 0.5 µM each time.
As for `C=CC(=O)NC1CCN(Cc2ccccc2)CC1` [Compound I-54, N-(1-benzyl-4-piperidyl)prop-2-enamide], the EC50 in the test on TEAD (setting [1]) and with H226 (setting [2]) was over 0.5 µM each time.
Take `C=CC(=O)N[C@@H]1CCN(Cc2ccc(C(F)(F)F)cc2)C1` [Compound I-55, N-[(3R)-1-[[4-(trifluoromethyl)phenyl]methyl]pyrrolidin-3-yl]prop-2-enamide]: the EC50 in the test with TEAD (setting [1]) and in the test with H226 (setting [2]) was 0.1 to 0.5 µM each time.
`C=CC(=O)NC1CCC(Nc2ccc(C(F)(F)F)cc2)CC1` (centres unmarked) [Compound I-56, N-[4-[4-(trifluoromethyl)anilino]cyclohexyl]prop-2-enamide]: the EC50 with TEAD (setting [3]) and in the test with H226 (setting [4]) was over 0.5 µM throughout.
Consider `C=CC(=O)N[C@H]1CCN(Cc2ccc(C(F)(F)F)cc2)C1` [Compound I-57, N-[(3S)-1-[[4-(trifluoromethyl)phenyl]methyl]pyrrolidin-3-yl]prop-2-enamide], for which the EC50 in the test with TEAD (setting [1]) and in the test on H226 (setting [2]) was over 0.5 µM each time.
Take `C=CC(=O)NC1CCC(Nc2ccc(C(F)(F)F)cc2)CC1` (centres unmarked) [Compound I-58, N-[4-[4-(trifluoromethyl)anilino]cyclohexyl]prop-2-enamide]: the EC50 in the test on TEAD (setting [3]) and in the test on H226 (setting [4]) was over 0.5 µM in each case.
Take `C=CC(=O)N1CCC(Nc2ccc(C(F)(F)F)cc2)CC1` [Compound I-59, 1-[4-[4-(trifluoromethyl)anilino]-1-piperidyl]prop-2-en-1-one]: the EC50 in the test on TEAD (setting [1]) and with H226 (setting [2]) was over 0.5 µM throughout.
Consider `C=CC(=O)N[C@H]1Cc2ccccc2N(Cc2cccc(C(F)(F)F)c2)C1` [Compound I-60, N-[(3S)-1-[[3-(trifluoromethyl)phenyl]methyl]-3,4-dihydro-2H-quinolin-3-yl]prop-2-enamide], for which the EC50 is 0.1 to 0.5 µM in the test on TEAD (setting [1]) and under 0.1 µM in the test on H226 (setting [2]).
Taken in the same sequence, the figures for `C=CC(=O)N1CCC(NCc2cccc(C(F)(F)F)c2)CC1` [Compound I-61] were over 0.5 µM and over 0.5 µM.
For `C=CC(=O)NC1CCN([C@@H](C)c2ccc(C(F)(F)F)cc2)CC1` [Compound I-63, N-[1-[(1S)-1-[4-(Trifluoromethyl)phenyl]ethyl]-4-piperidyl]prop-2-enamide], in that order: 0.1 to 0.5 µM and over 0.5 µM.
For `C=CC(=O)N1CC[C@H](NCc2ccc(C(F)(F)F)cc2)C1` [Compound I-64, 1-[(3S)-3-[[4-(Trifluoromethyl)phenyl]methylamino]pyrrolidin-1-yl]prop-2-en-1-one], in that order: under 0.1 µM and under 0.1 µM.
Regarding `C=CC(=O)N1CC[C@H](NCc2cccc(C(F)(F)F)c2)C1` [Compound I-65, 1-[(3S)-3-[[3-(trifluoromethyl)phenyl]methylamino]pyrrolidin-1-yl]prop-2-en-1-one], the half-maximal effective concentration (EC50) in the test on TEAD (setting [1]) is 0.1 to 0.5 µM; in the test with H226 (setting [2]), over 0.5 µM.
Taken in the same sequence, the figures for `C=CC(=O)NC1CCN(c2cccc3ccccc23)CC1` [Compound I-66, N-[1-(1-Naphthyl)-4-piperidyl]prop-2-enamide] were over 0.5 µM and over 0.5 µM.
Consider `C=CC(=O)NC1CCC(Oc2ccc(C(F)(F)F)cc2)CC1` (centres unmarked) [Compound I-67, N-[4-[4-(Trifluoromethyl)phenoxy]cyclohexyl]prop-2-enamide], for which the concentration for a half-maximal effect (EC50) in the test on TEAD (setting [1]) and in the test on H226 (setting [2]) was 0.1 to 0.5 µM throughout.
As to `C=CC(=O)N[C@H]1CCN(Cc2ccc(C(F)(F)F)cc2)c2ccccc21` [Compound I-68, N-[(4S)-1-[[4-(Trifluoromethyl)phenyl]methyl]-3,4-dihydro-2H-quinolin-4-yl]prop-2-enamide], the figures for the EC50 in the test on TEAD (setting [1]) and with H226 (setting [2]) were 0.1 to 0.5 µM and over 0.5 µM, respectively.
With `C=CC(=O)NC1CCC(Oc2ccc(C(F)(F)F)cc2)CC1` (centres unmarked) [Compound I-70, N-[4-[4-(Trifluoromethyl)phenoxy]cyclohexyl]prop-2-enamide], the EC50 in the test with TEAD (setting [3]) and in the test on H226 (setting [4]) was under 0.1 µM in each case.
Turning to `C=CC(=O)N[C@@H]1Cc2ccccc2N(Cc2cccc(C(F)(F)F)c2)C1` [Compound I-71, N-[(3R)-1-[[3-(Trifluoromethyl)phenyl]methyl]-3,4-dihydro-2H-quinolin-3-yl]prop-2-enamide], the EC50 in the test on TEAD (setting [1]) and in the test on H226 (setting [2]) was under 0.1 µM throughout.
For `C=CC(=O)N1C[C@@H]2[C@H](C1)[C@H]2NCc1cccc(C(F)(F)F)c1` [Compound I-72, 1-[(1S,5R)-6-[[3-(trifluoromethyl)phenyl]methylamino]-3-azabicyclo[3.1.0]hexan-3-yl]prop-2-en-1-one], the EC50 was 0.1 to 0.5 µM in the test with TEAD (setting [1]) and under 0.1 µM in the test on H226 (setting [2]).
